Assay results: ChEMBL document CHEMBL5653631, “A Potent and Selective ULK1 Inhibitor Suppresses Autophagy and Sensitizes Cancer Cells to Nutrient Stress” (iScience, 2018)
Blank lines part the entries; values can stand above or below the compound they belong to.

What was measured:
[1] = target: TGF-beta receptor type-2 (Homo sapiens) (UniProt P37173); assay: Inhibition of human recombinant TGFbR2 at 500 nM related to control ULK1
[2] = target: T1, Ephrin type-B receptor 1 (Homo sapiens) (UniProt P54762); assay: Inhibition of human recombinant EphB1 at 500 nM related to control ULK1
T1 sequence (whole entry): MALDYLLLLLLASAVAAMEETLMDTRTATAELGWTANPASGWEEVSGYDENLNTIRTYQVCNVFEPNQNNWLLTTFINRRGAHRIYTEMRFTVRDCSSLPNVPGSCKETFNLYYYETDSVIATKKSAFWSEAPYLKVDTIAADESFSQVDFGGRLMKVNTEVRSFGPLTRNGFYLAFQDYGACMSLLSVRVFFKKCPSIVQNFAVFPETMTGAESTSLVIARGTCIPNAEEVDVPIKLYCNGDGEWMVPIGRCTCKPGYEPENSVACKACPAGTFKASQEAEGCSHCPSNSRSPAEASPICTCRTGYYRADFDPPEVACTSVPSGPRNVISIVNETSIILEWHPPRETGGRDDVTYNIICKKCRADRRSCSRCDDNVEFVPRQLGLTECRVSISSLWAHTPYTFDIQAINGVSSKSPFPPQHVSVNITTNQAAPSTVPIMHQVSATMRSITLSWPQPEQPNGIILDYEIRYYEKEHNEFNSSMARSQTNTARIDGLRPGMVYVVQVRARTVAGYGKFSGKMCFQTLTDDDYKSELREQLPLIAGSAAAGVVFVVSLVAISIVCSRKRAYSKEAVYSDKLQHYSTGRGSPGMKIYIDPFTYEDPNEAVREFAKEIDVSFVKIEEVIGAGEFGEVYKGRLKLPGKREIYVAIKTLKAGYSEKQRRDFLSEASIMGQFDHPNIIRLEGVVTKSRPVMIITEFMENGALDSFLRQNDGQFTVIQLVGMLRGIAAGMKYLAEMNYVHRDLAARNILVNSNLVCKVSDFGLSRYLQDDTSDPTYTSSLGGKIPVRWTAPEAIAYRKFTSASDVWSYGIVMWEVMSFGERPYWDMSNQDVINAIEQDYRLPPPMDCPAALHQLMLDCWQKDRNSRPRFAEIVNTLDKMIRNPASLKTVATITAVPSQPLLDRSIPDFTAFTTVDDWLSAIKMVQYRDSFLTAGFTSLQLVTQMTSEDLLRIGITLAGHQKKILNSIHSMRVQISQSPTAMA

[3] = target: Tyrosine-protein kinase Yes (Homo sapiens) (UniProt P07947); assay: Inhibition of human recombinant YES at 500 nM related to control ULK1
Sequence of Tyrosine-protein kinase Yes (Homo sapiens) (P07947 2-543 limits assumed): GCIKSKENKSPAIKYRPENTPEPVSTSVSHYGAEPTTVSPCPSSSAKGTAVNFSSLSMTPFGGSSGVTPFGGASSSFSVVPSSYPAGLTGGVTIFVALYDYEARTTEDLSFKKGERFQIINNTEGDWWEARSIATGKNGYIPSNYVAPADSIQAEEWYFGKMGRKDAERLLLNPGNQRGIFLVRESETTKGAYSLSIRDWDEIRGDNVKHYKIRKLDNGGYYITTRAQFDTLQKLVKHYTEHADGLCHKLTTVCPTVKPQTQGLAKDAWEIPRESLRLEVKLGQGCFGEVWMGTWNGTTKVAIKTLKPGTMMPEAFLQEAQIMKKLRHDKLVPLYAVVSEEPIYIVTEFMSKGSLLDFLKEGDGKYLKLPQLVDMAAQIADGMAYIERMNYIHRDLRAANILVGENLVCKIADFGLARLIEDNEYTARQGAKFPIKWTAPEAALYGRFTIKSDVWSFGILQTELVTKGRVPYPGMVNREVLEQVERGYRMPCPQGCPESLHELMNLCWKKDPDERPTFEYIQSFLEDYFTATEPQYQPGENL

[4] = target: Dual specificity mitogen-activated protein kinase kinase 2 (Homo sapiens) (UniProt P36507); assay: Inhibition of human recombinant MAP2K2 at 40 nM related to control ULK1
Sequence of Dual specificity mitogen-activated protein kinase kinase 2 (Homo sapiens) (P36507 whole entry): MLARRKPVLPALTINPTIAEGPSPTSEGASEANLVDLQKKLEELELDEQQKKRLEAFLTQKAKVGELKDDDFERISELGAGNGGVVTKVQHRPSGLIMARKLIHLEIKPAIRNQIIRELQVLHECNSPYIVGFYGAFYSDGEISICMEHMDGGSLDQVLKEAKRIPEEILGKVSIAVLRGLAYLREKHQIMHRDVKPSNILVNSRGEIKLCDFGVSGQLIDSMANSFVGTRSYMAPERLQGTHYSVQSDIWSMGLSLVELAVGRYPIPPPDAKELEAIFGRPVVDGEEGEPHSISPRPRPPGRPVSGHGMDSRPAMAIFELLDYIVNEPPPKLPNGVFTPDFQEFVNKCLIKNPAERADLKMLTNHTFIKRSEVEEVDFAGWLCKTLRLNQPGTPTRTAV

[5] = target: Cyclin-dependent kinase-like 3 (Homo sapiens) (UniProt Q8IVW4); assay: Inhibition of human recombinant CDKL3 at 40 nM in presence of ATP by radiometric assay relative to control
Sequence of Cyclin-dependent kinase-like 3 (Homo sapiens) (Q8IVW4 whole entry, looked up): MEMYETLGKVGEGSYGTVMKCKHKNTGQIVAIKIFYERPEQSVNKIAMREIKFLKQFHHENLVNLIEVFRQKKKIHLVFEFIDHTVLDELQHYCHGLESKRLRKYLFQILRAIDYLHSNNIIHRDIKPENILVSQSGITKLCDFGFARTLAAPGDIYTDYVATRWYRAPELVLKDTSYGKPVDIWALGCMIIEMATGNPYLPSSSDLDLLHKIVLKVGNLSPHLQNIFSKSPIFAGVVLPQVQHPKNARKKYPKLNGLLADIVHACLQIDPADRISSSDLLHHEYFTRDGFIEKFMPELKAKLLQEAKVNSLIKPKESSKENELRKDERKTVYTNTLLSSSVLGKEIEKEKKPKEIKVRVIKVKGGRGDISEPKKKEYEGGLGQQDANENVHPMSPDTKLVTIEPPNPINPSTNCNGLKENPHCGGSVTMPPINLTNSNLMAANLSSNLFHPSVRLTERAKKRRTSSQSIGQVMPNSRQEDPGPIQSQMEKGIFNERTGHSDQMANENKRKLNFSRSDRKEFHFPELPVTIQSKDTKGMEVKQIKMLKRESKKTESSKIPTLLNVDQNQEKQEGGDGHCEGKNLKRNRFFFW

[6] = target: Serine/threonine-protein kinase MARK2 (Homo sapiens) (UniProt Q7KZI7); assay: Inhibition of human recombinant MARK2 at 15 nM in presence of ATP by radiometric assay relative to control
Sequence of Serine/threonine-protein kinase MARK2 (Homo sapiens) (Q7KZI7 whole entry): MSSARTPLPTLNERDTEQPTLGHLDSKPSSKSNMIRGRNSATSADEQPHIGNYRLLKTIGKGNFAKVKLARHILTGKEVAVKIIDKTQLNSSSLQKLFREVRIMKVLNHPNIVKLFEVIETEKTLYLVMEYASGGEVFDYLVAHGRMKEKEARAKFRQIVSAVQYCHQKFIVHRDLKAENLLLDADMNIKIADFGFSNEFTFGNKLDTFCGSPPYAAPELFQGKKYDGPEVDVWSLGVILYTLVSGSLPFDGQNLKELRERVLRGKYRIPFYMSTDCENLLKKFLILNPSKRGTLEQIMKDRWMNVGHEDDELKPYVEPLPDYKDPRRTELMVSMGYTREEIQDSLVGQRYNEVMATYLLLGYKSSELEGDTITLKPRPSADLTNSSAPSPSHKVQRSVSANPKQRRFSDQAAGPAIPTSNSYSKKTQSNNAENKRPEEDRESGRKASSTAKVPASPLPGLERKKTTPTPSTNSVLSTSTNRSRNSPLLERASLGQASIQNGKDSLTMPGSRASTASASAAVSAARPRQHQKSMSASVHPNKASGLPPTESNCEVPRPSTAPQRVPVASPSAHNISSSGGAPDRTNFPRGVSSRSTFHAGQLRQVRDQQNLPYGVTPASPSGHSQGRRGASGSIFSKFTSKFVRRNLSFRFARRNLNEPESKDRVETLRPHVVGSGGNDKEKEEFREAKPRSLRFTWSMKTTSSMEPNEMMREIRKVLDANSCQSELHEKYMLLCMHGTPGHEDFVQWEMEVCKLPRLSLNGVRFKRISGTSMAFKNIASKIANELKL

[7] = target: T2, MAP/microtubule affinity-regulating kinase 4 (Homo sapiens) (UniProt Q96L34); assay: Inhibition of human recombinant MARK4 at 15 nM in presence of ATP by radiometric assay relative to control
T2 sequence (whole entry): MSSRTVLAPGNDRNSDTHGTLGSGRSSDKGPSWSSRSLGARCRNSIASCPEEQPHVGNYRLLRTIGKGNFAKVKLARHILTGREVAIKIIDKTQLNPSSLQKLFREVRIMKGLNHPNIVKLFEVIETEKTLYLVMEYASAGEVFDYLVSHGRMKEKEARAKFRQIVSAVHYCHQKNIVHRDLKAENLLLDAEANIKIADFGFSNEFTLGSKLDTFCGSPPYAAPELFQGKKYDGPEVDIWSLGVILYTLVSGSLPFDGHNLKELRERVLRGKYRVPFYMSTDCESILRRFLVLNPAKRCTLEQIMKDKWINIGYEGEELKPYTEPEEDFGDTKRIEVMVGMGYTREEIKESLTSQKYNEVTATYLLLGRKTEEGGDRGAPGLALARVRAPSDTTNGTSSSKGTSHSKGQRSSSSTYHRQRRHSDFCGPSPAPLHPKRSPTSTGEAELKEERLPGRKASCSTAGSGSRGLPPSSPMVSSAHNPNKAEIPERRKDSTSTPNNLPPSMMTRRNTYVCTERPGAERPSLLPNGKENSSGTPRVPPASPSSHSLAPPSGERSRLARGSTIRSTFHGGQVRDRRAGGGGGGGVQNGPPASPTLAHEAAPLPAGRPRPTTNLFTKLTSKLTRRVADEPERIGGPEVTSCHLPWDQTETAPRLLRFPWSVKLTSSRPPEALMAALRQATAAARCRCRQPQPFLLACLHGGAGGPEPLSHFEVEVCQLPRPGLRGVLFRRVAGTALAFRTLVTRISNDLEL

[8] = target: T3, Calcium/calmodulin-dependent protein kinase type IV (Homo sapiens) (UniProt Q16566); assay: Inhibition of human recombinant CaMK4 at 15 nM related to control ULK1
T3 sequence (whole entry): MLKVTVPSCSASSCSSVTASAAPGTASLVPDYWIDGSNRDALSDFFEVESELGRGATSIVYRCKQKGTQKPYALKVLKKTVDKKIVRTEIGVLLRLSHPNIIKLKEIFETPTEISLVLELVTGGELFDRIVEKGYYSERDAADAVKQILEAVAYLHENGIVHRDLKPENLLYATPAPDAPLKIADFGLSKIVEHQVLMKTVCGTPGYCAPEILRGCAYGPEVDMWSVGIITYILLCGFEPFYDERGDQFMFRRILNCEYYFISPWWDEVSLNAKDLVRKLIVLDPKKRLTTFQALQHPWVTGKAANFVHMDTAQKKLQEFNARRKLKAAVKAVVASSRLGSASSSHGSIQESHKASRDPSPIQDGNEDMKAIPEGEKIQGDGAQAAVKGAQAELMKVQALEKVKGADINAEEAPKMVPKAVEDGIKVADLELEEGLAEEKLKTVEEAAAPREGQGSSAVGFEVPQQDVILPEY

[9] = target: Mitogen-activated protein kinase 9 (Homo sapiens) (UniProt P45984); assay: Inhibition of human recombinant JNK2 at 15 nM related to control ULK1
Sequence of Mitogen-activated protein kinase 9 (Homo sapiens) (P45984 whole entry, looked up): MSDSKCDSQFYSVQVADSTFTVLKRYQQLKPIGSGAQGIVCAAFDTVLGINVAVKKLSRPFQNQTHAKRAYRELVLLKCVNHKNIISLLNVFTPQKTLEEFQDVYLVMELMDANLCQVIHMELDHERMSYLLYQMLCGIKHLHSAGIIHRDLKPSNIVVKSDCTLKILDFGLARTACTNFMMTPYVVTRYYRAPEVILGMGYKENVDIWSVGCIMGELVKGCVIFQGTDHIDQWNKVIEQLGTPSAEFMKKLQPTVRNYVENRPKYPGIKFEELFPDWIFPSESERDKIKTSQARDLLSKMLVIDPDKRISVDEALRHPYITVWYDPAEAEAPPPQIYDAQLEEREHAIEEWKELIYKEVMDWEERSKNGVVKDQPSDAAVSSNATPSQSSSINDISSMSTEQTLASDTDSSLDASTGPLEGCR

Sequence of TGF-beta receptor type-2 (Homo sapiens) (P37173 whole entry): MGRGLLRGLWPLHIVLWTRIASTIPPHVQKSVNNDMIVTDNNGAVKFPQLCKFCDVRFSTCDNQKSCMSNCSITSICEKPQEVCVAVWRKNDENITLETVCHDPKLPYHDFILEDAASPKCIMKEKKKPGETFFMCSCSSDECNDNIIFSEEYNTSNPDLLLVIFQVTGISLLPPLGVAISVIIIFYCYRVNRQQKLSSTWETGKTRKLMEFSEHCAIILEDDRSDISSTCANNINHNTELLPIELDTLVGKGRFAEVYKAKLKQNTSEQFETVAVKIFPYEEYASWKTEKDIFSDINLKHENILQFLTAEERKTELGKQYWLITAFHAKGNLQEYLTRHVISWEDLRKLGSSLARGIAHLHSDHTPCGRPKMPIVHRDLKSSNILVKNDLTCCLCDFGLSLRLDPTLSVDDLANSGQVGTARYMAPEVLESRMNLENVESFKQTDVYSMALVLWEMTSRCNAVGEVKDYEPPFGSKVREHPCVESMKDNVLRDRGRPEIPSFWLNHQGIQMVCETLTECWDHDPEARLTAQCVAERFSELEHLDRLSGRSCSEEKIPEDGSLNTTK

- fold change (FC) [1]: 0.03
- fold change (FC) [2]: 0.14
- fold change (FC) [3]: 0.89
SMILES: CNC(=O)c1ccccc1Oc1nc(Nc2cc(OC)c(OC)c(OC)c2)ncc1Br

- fold change (FC) [4]: 0
- inhibition [5]: 39%
SMILES: O=C(N[C@@H](C1CC1)C(F)(F)F)c1cc(-c2cnn3cc(-c4ccc(F)cc4)cnc23)cs1

- inhibition [6]: 47%
- inhibition [7]: 42%
- fold change (FC) [8]: 0
- fold change (FC) [9]: 0
SMILES: CC(C)[C@H](NC(=O)c1cc(-c2cnn3cc(-c4ccc(OCCN5CCCCC5)cc4)cnc23)cs1)C(F)(F)F
